Results reported in patent US20060046972A1, “Cytotoxic nucleoside analog compound 003 for treating cancer” (Parker Hughes Institute, priority 2004, published 2006).

What was measured:
[1] = Pharmacokinetics in CD-1 mice after intravenous or oral Compound 003; format: in vivo
Method: Each plasma sample (200 μL) was mixed 1:4 with acetone (800 μL) and vortexed for at least 30 seconds. Following centrifugation, the supernatant was transferred into a clean tube and dried under nitrogen. A 50 μL solution of 50% methanol in 200 mM HCl was used to reconstitute the extraction residue, and 35 μL was subjected to analytical HPLC. The analytical column used was a 250×4 mm Lichrospher 100, RP-18 (5 μm) and the guard column was a 4×4 mm Lichrospher 100, RP-18 (5 μm). The mobile phase was degassed automatically by the electronic degasser system. The column was equilibrated and eluted under gradient conditions utilizing a flow rate of 1.0 ml/min at ambient temperature. The linear gradient mobile phase was: 0 minute, 100% 10 mM ammonium phosphate buffer (pH 3.7); 20 minutes, 20% acetonitrile, 80% ammonium phosphate buffer (pH 3.7); 20.1-50 minutes, 28% acetonitrile, 72% water (0.1% HAC). The wavelength of detection was set at 270 nm. Peak width, response time and slit werep, set at >0.03 minutes, 0.5 s and 8 nm, respectively.
Female CD-1 mice (6-8 weeks old) (Charles River, Wilmington, Mass.) were housed in a USDA-accredited animal care facility under standard environmental conditions (12-h light/12-h dark photoperiod, 22±1° C., 60±10% relative humidity). All rodents were housed in microisolator cages (Lab Products, Inc., N.J.) containing autoclaved bedding. Mice were allowed free access to autoclaved pellet food and tap water throughout the study. All animal studies are approved by the Parker Hughes Institute Animal Care and Use Committee, and all animal care procedures conformed to the principles outlined in the Guide for the Care and Use of Laboratory Animals (National Research Council;. National Academy Press, Washington D.C. 1996).
Compound 003 (200 mg/kg) dissolved in DMSO was administered intravenously via tail vein to non-fasted mice or orally via gavage to 12-h fasted mice. Four to six mice per time-point were used for pharmacokinetic studies. Blood samples (˜500 μL) were obtained from the ocular venous plexus by retro-orbital venipuncture at 0, 5, 10, 15, 30, 45 minutes, and 1 h, 1.5 h, 2 h, 4 h, 6 h and 8 h after oral administration. All collected blood-samples were heparinized and centrifuged at 7000×g for 5 minutes to separate the plasma fraction from the whole blood. The plasma samples were then processed immediately using the extraction procedure described above.
Pharmacokinetic modeling and parameter calculations were carried out using the WinNonlin Professional Version 3.0 (Pharsight, Inc., Mountain, Calif.) pharmacokinetics software (Chen, C. L., et al., (1999) Pharm Res. 16:117; Chen, C. L., et al., (1999) Pharm Res. 16:1003; Uckun, F. M., et al., (1999) Clin Cancer Res. 5:2954). An appropriate model was chosen on the basis of the lowest sum of weighted squared residuals, the lowest Schwartz Criterion (SC), the lowest Akaike's Information Criterion (AIC) value, the lowest standard errors of the fitted parameters, and the dispersion of the residuals. The elimination half-life was estimated by linear regression analysis of the terminal phase of the plasma concentration-time profile. The systemic clearance (CL) was determined by dividing the dose by the AUC.

BT20 breast cancer cells = assay: Confocal laser scanning microscopy of microtubules / mitotic spindle, BT20; format: cell-based, human
Method: Immunofluorenscence was used to examine the spindle features of human cancer cell lines treated with Compound 003 or 0.5% DMSO. […] The coverslips were incubated with antibodies raised against α-tubulin, γ-tubulin (Sigma Chemical Co., St Louis, Mo.) (40 min 37° C.), washed in PBS-Tx-100, and incubated with an appropriate secondary antibody conjugated to FITC (Jackson ImmunoResearch, Westgrove, Pa.). Cellular DNA was labeled with 5 μM TOTO3 (Molecular Probes, Eugene, Oreg.) for 20 minutes. Coverslips were immediately inverted onto slides in Vectashield (Vector Labs, Burlingame, Calif.) to prevent photobleaching, sealed with nail varnish and stored at −20° C. The slides were examined using a Bio-Rad MRC-1024 Laser Scanning Confocal Microscope equipped with a Kr/Ar laser (BioRad, Hercules, Calif.) mounted on a Nikon Eclipse E800 upright microscope with high numerical aperture objectives (Nikon, Melville, N.Y.). Digital data were processed using Lasersharp (BioRad) and Adobe Photoshop software (Adobe Systems, Mountain View, Calif.). ( See, for example, Navara, et al., 2001, Anticancer Drugs. 12:369; Malaviya, et al., 2002, Leuk Lymphoma. 43, 1329; and Ghosh, 1998, Clin Cancer Res. 4, 2657).

[2] = system: MMTV/Neu transgenic mice kept pregnant or lactating; assay: Lactation induced murine model of Her 2 positive breast cancer, MMTV/Neu transgenic mice; format: in vivo
Method: MMTV/Neu transgenic mice were treated with Compound 003 that was added to the daily food of the mice at an average daily dose level of 50 mg/kg/day for the duration of the experiment. Mice were screened for the tumor formation every other day. Tumor-free survival was analyzed using life table statistics as previously reported. The protective anti-cancer activity of Compound 003 was evaluated according to the rise of the survival rate and prolongation of the tumor-free survival of the experimental animals as compared with the control animals. Statistical Significance was determined using the Kaplan Meier Log-Rank test.
In the second experiment, in order to maintain the development of mammary gland and maximum expression of the MMTV-driven neu transgene, all female transgenic mice were kept either pregnant or lactating by continued housing with male FVB mice. Treatments commenced when female mice were 6-weeks of age. Vehicle-treated control mice (N=16) developed breast cancer faster than vehicle treated virgin transgenic mice with a median cancer-free survival time of 169.5 days (Mean=160.8±9.3 days). Compound 003 prolonged the median cancer-free survival from 169.5 days to 234 days (P=0.05). At 200 days, the cumulative proportion of vehicle-treated neu transgenic mice was only 38±12%, whereas at the same time 75±11% of Compound 003-treated neu transgenic mice were cancer-free (FIG. 9).

COC(=O)C(C)NP(=O)(OCC1OC(n2cc(C)c(=O)[nH]c2=O)CC1N=[N+]=[N-])Oc1ccc(OC)cc1 (stereo not drawn) [Compound 003, 3′-azidothymidine 5′-[p-methoxyphenylmethoxyalaninyl phosphate]]
in vivo transformation of parent compound ([1]; i.v. injection of 200 mg/kg): immediately transformed to Ala-AZT-MP and AZT
plasma concentration of parent compound ([1]; oral 200 mg/kg, below the detection limit): < 0.5 µM
mitotic spindle formation (BT20 breast cancer cells; 100 μM): induced aberrant multipolar spindle formation
effect on microtubules (BT20 breast cancer cells; 185 μM for 24 hours (AZT: similar concentrations)): no microtubules were observed
median cancer-free survival ([2]; 50 mg/kg/day in food, vehicle 169.5 days, P=0.05): 234 days
proportion of mice cancer-free ([2]; 50 mg/kg/day, at 200 days, vehicle 38±12%): 75±11%
